The conditions of data set [1]: human gut metagenome, 24 h, 2 µM.
Data set [2] is described as follows: The drug is tested on WLS-086 corresponding to human gut metagenome with ENA study accession number: PRJEB37062 and ENA sample accession number: ERS12561752 for biotransformation under anaerobic condition. The drug concentrations were measured over 9 timepoints collected between 0 and 24 hours of incubation by liquid-chromatography-coupled mass spectrometry (LC–MS). As to conditions: 2 µM.

For data set [3] the following is noted: human gut metagenome, 24 h, 2 µM. This is another data set of the same source.
Data set [4] can be described thus: The drug is tested on WLS-220 corresponding to human gut metagenome with ENA study accession number: PRJEB37062 and ENA sample accession number: ERS12561769 for biotransformation under anaerobic condition. The drug concentrations were measured over 9 timepoints collected between 0 and 24 hours of incubation by liquid-chromatography-coupled mass spectrometry (LC–MS). As to conditions: 2 µM.

For data set [5] the following is noted: human gut metagenome, 24 h, 2 µM. The source holds these as a separate data set.
Data set [6] in a line: The drug is tested on Z-003 corresponding to pig gut metagenome with ENA study accession number: PRJEB37062 and ENA sample accession number: ERS12561803 for biotransformation under anaerobic condition. The drug concentrations were measured over 9 timepoints collected between 0 and 24 hours of incubation by liquid-chromatography-coupled mass spectrometry (LC–MS). Particulars: 2 µM.

For data set [7] the following is noted: human gut metagenome, 24 h, 2 µM. The source holds these as a separate data set.
A short description of data set [8]: The drug is tested on Z-008 corresponding to metagenome with ENA study accession number: PRJEB37062 and ENA sample accession number: ERS12561808 for biotransformation under anaerobic condition. The drug concentrations were measured over 9 timepoints collected between 0 and 24 hours of incubation by liquid-chromatography-coupled mass spectrometry (LC–MS). As to conditions: 2 µM.

Data set [9] is described as follows: The drug is tested on Z-028 corresponding to mouse gut metagenome with ENA study accession number: PRJEB37062 and ENA sample accession number: ERS12561827 for biotransformation under anaerobic condition. The drug concentrations were measured over 9 timepoints collected between 0 and 24 hours of incubation by liquid-chromatography-coupled mass spectrometry (LC–MS). Particulars: 2 µM.

A short description of data set [10]: The drug is tested on WLS-006 corresponding to human gut metagenome with ENA study accession number: PRJEB37062 and ENA sample accession number: ERS12561741 for biotransformation under anaerobic condition. The drug concentrations were measured over 9 timepoints collected between 0 and 24 hours of incubation by liquid-chromatography-coupled mass spectrometry (LC–MS). As to conditions: 2 µM.

Data set [11] in a line: The drug is tested on Z-014 corresponding to rat gut metagenome with ENA study accession number: PRJEB37062 and ENA sample accession number: ERS12561814 for biotransformation under anaerobic condition. The drug concentrations were measured over 9 timepoints collected between 0 and 24 hours of incubation by liquid-chromatography-coupled mass spectrometry (LC–MS). Particulars: 2 µM.

For data set [12] the following is noted: human gut metagenome, 24 h, 2 µM. The source holds these as a separate data set.
Data set [13] can be described thus: The drug is tested on Z-018 corresponding to pig gut metagenome with ENA study accession number: PRJEB37062 and ENA sample accession number: ERS12561817 for biotransformation under anaerobic condition. The drug concentrations were measured over 9 timepoints collected between 0 and 24 hours of incubation by liquid-chromatography-coupled mass spectrometry (LC–MS). Particulars: 2 µM.

Data set [14] can be described thus: The drug is tested on Z-026 corresponding to metagenome with ENA study accession number: PRJEB37062 and ENA sample accession number: ERS12561825 for biotransformation under anaerobic condition. The drug concentrations were measured over 9 timepoints collected between 0 and 24 hours of incubation by liquid-chromatography-coupled mass spectrometry (LC–MS). As to conditions: 2 µM.

A short description of data set [15]: The drug is tested on Z-002 corresponding to rabbit gut metagenome with ENA study accession number: PRJEB37062 and ENA sample accession number: ERS12561802 for biotransformation under anaerobic condition. The drug concentrations were measured over 9 timepoints collected between 0 and 24 hours of incubation by liquid-chromatography-coupled mass spectrometry (LC–MS). Particulars: 2 µM.

The conditions of data set [16]: human gut metagenome, 24 h, 2 µM. The source holds these as a separate data set.
The nature of data set [17]: The drug is tested on Z-019 corresponding to rat gut metagenome with ENA study accession number: PRJEB37062 and ENA sample accession number: ERS12561818 for biotransformation under anaerobic condition. The drug concentrations were measured over 9 timepoints collected between 0 and 24 hours of incubation by liquid-chromatography-coupled mass spectrometry (LC–MS). Particulars: 2 µM.

For data set [18] the following is noted: human gut metagenome, 24 h, 2 µM. The source holds these as a separate data set.
For data set [19] the following is noted: human gut metagenome, 24 h, 2 µM. This is another data set of the same source.
A short description of data set [20]: The drug is tested on Z-017 corresponding to mouse gut metagenome with ENA study accession number: PRJEB37062 and ENA sample accession number: ERS12561816 for biotransformation under anaerobic condition. The drug concentrations were measured over 9 timepoints collected between 0 and 24 hours of incubation by liquid-chromatography-coupled mass spectrometry (LC–MS). Particulars: 2 µM.

Each structure is given as a SMILES string.
Note: call rule not given here.

For `CN1C(=O)CCS(=O)(=O)C1c1ccc(Cl)cc1` (stereo not given) [CHLORMEZANONE], the “Bacterial Biotransformation” value in data set [1] is on record as “Compound NOT metabolized”; in [2], “Compound metabolized”; in [3], “Compound NOT metabolized”; in data set [4], “Compound NOT metabolized”; in data set [5] it was “Compound NOT metabolized”; in data set [6] it was “Compound NOT metabolized”. For the same compound, the “Bacterial Biotransformation” value was “Compound NOT metabolized” in data set [7]; “Compound NOT metabolized” in data set [8]; “Compound NOT metabolized” in data set [9]; “Compound metabolized” in data set [10]; “Compound NOT metabolized” in data set [11]; “Compound NOT metabolized” in [12]. The “Bacterial Biotransformation” value in data set [13], in data set [14], in data set [15], in data set [16], in [17] and in data set [18] was “Compound NOT metabolized” each time. Besides, the “Bacterial Biotransformation” value in [19] and in [20] was “Compound NOT metabolized” each time.
`Clc1ccc(Cn2c(CN3CCCC3)nc3ccccc32)cc1` [CLEMIZOLE]: the “Bacterial Biotransformation” value in data set [1] is “Compound metabolized”; in data set [2], “Compound metabolized”; in data set [3], “Compound metabolized”; in data set [4], “Compound NOT metabolized”; in [5], “Compound metabolized”; in [6] it was “Compound metabolized”. Further, the “Bacterial Biotransformation” value is “Compound metabolized” in data set [7]; “Compound NOT metabolized” in data set [8]; “Compound NOT metabolized” in [9]; “Compound metabolized” in data set [10]; “Compound NOT metabolized” in [11]; “Compound NOT metabolized” in data set [12]. The “Bacterial Biotransformation” value is recorded as “Compound metabolized” in data set [13]; “Compound NOT metabolized” in [14]; “Compound metabolized” in data set [15]; “Compound metabolized” in data set [16]; “Compound NOT metabolized” in data set [17]; “Compound metabolized” in data set [18]. In addition, the “Bacterial Biotransformation” value in data set [19] and in data set [20] was “Compound NOT metabolized” each time.
With `CN1CCN(C2=Nc3cc(Cl)ccc3Nc3ccccc32)CC1` [CLOZAPINE], the “Bacterial Biotransformation” value in [1] is listed as “Compound NOT metabolized”; in data set [2], “Compound metabolized”; in data set [3], “Compound NOT metabolized”; in [4], “Compound metabolized”; in data set [5] it was “Compound metabolized”; in data set [6] it was “Compound NOT metabolized”. Moreover, the “Bacterial Biotransformation” value was “Compound metabolized” in data set [7]; “Compound NOT metabolized” in data set [8]; “Compound NOT metabolized” in data set [9]; “Compound NOT metabolized” in data set [10]; “Compound NOT metabolized” in data set [11]; “Compound NOT metabolized” in data set [12]. For the same compound, the “Bacterial Biotransformation” value in data set [13] is recorded as “Compound NOT metabolized”; in data set [14], “Compound NOT metabolized”; in data set [15] it was “Compound metabolized”; in data set [16] it was “Compound NOT metabolized”; in data set [17], “Compound NOT metabolized”; in data set [18], “Compound metabolized”. Also, the “Bacterial Biotransformation” value was “Compound metabolized” in [19] and “Compound NOT metabolized” in [20].
Take `COc1cc2c(c(OC)c1OC)-c1ccc(OC)c(=O)cc1[C@@H](NC(C)=O)CC2` [COLCHICINE]: the “Bacterial Biotransformation” value was “Compound NOT metabolized” in data set [1]; “Compound NOT metabolized” in [2]; “Compound metabolized” in data set [3]; “Compound metabolized” in data set [4]; “Compound metabolized” in [5]; “Compound NOT metabolized” in data set [6]. For the same compound, the “Bacterial Biotransformation” value in data set [7] is recorded as “Compound metabolized”; in [8], “Compound NOT metabolized”; in data set [9] it was “Compound NOT metabolized”; in data set [10], “Compound metabolized”; in [11] it was “Compound NOT metabolized”; in [12], “Compound metabolized”. In addition, the “Bacterial Biotransformation” value in data set [13] was “Compound NOT metabolized”; in data set [14] it was “Compound NOT metabolized”; in [15], “Compound metabolized”; in data set [16], “Compound NOT metabolized”; in [17], “Compound NOT metabolized”; in [18], “Compound metabolized”. Besides, the “Bacterial Biotransformation” value was “Compound metabolized” in [19] and “Compound NOT metabolized” in data set [20].
As for `CC(=O)OCC(=O)[C@@]12N=C(C)O[C@@H]1C[C@H]1[C@@H]3CCC4=CC(=O)C=C[C@]4(C)[C@H]3[C@@H](O)C[C@@]12C` [DEFLAZACORT], the “Bacterial Biotransformation” value in data set [1], in [2], in data set [3], in [4], in data set [5] and in [6] was “Compound metabolized” throughout. Besides, the “Bacterial Biotransformation” value in data set [7], in [8], in [9], in data set [10], in data set [11] and in data set [12] was “Compound metabolized” each time. For the same compound, the “Bacterial Biotransformation” value is “Compound metabolized” in data set [13]; “Compound metabolized” in data set [14]; “Compound metabolized” in [15]; “Compound metabolized” in [16]; “Compound NOT metabolized” in [17]; “Compound metabolized” in [18]. The “Bacterial Biotransformation” value in data set [19] and in [20] was “Compound metabolized” each time.

The record behind these values is ChEMBL document CHEMBL5724914, “Linking interpersonal differences in gut microbiota composition and drug biotransformation activity” (2024).
